Measured values published in US20170081724A1, “METHOD AND KITS FOR DETERMINING SENSITIVITY TO CANCER TREATMENT” (Dana-Farber Cancer Institute, Inc., priority 2014, published 2017).

Tested on: ERCC2-deficient fibroblast cell line (GM08207) expressing GFP, WT ERCC2 or mutant ERCC2
Assay: Cisplatin sensitivity assay (CellTiter-Glo survival, 120 hours)
Assay type: cell-based, human
Description: The expression plasmids harboring WT ERCC2, GFP (negative control), or mutant ERCC2s were expanded in E. coli TOP10 cells (Invitrogen) and purified using an anion exchange kit (Qiagen). Lentiviruses were propagated in 293T cells by cotransfection of the expression plasmid with plasmids encoding viral packaging and envelope proteins. Unless otherwise noted, all human cell lines were cultured in Dulbecco's Modified Eagle's Medium (Invitrogen) supplemented with 10% fetal bovine serum (Sigma) and 1% L-glutamine and grown at 37° C. and 5% CO2. The 293T cell supernatants containing virus were collected after 48 hours, filtered twice (0.45 μm syringe filter, Millipore), then added directly to growing cultures of an SV40-transformed pseudodiploid ERCC2-deficient fibroblast cell line derived from an XP patient of genetic complementation group D (GM08207; Coriell Institute). Polybrene® (Sigma) was added to a final concentration of 8 μg/ml to increase the efficiency of infection. […]
Cells were transferred to 96-well plates at a density of 500 cells per well. […] After 120 hours, CellTiter-Glo reagent (Promega) was added to the wells and the plates were scanned using a luminescence microplate reader (BioTek). […] IC50 concentrations were calculated using a four parameter sigmoidal model and plots were generated using Prism (GraphPad). […]

N.N.[Cl][Pt][Cl] [cisplatin]
cisplatin IC50 (WT ERCC2 complemented cell line compared with ERCC2-deficient parent cell line, P=0.0003, ANOVA): significantly higher | cisplatin IC50 (each mutant ERCC2 cell line (five mutants) compared with parent ERCC2-deficient cell line): not significantly different
